According to patent US12503426B2, “Synthetic derivatives of oleoyl-lysophosphatidylinositol (oleoyl-LPI) and uses thereof” (LIPOVEXA SRL, priority 2017, dated 2025):
pEC50: −log10 of the molar value.

Legend:
[1] = system: primary culture of mixed colonic preparations; test: GLP-1 secretion by mixed primary colonic culture; assay type: cell-based, mice
From the text: Mice were euthanized, and 5 cm of colon were used for isolation of epithelial cells following as previously described by Reimann, F., Habib, A. M., Tolhurst, G., Parker, H. E., Rogers, G. J., & Gribble, F. M. (2008), Cell Metabolism, Vol 8(6), pp 532-539, the disclosure of which is incorporated herein by reference in its entirety. Briefly, colon segments were dissected from 10 week-old C57BL/6 male mice. Segments were cut open longitudinally and washed quickly in DMEM (serum-free) to remove luminal contents. Colon was chopped into about 1-2 mm pieces and digested with about 0.5 mg/ml collagenase-P for 15 min. Resulting cell suspensions were filtered through 70 μm nylon cell strainers (BD Falcon, UK), centrifuged at 300 g for 5 min, and pellets re-suspended in DMEM supplemented with 10% FBS. The purified cells were collected and cultured on 24-well Matrigel-coated plates at 37° C. in DMEM (25 mM glucose), 10% FBS, 2 mM L-glutamine, 1% penicillin/streptomycin. On the day of GLP-1 assay, cells were washed twice with PBS, and then treated with LPI or vehicle Methanol: Chloroform, (M:C), v/v for 2 h at 37° C. Supernatants were collected for GLP-1 quantification using the active GLP-1 ELISA kit from Millipore. […]

pancreatic islets = test: Glucose-stimulated insulin secretion (GSIS) of isolated islets; assay type: cell-based, mice; details: 16.7 mM glucose
Procedure: After euthanasia, pancreatic islets were isolated as described in detail elsewhere (Carter, J. D., S. B. Dula, K. L. Corbin, R. P. Wu and C. S. Nunemaker (2009), Biological Procedures Online, Vol 11(1), pp:3-31). Following purification, islets were rested overnight at 37° C. in a humidified atmosphere of 95% air and 5% CO2 in RPMI 1640 medium supplemented with 10% FBS, 100 units/ml penicillin and 0.1 mg/ml streptomycin.
Glucose-stimulated insulin secretion (GSIS) was performed on isolated mouse islets after resting them overnight in supplemented RPMI 1640 medium at 37° C. in a humidified atmosphere of 95% air and 5% CO2. Briefly, islets were hand-picked and placed in groups of five into individual micro centrifuge tubes. Islets were washed twice, then incubated with Krebs buffer (KRB, 115 mM NaCl; 4.7 mM KCl; 1.28 mM CaCl2·2H2O; 1.2 mM KH2PO4; 1.2 mM MgSO4·7H2O; 10 mM NaHCO3; 10 mM HEPES; 0.5% BSA; pH 7.4) supplemented with 1.1 mM glucose for 40 minutes at 37° C. Supernatants were discarded, then islets were incubated with KRB supplemented with 16.7 mM glucose for 20 minutes. Supernatants were collected for insulin determination using Mouse Ultrasensitive Insulin ELISA (Mercodia, Uppsala, Sweden) according to manufacturer instructions and data was reported as picograms of Insulin per islet in 20 minutes (pg/islet/20 min).

human GPR119 = molecular target: T1, human GPR119 (Homo sapiens, UniProt Q8TDV5); test: cAMP assay in GPR119 transfected COS-7 cells; assay type: cell-based; details: COS-7 cells expressing human GPR119, agonists 30 min; read-out: EC50, production of cAMP
T1 construct: expressed in transfected cells; host or cells: COS-7 cells, calcium phosphate transfection
T1 sequence (Q8TDV5 1-335): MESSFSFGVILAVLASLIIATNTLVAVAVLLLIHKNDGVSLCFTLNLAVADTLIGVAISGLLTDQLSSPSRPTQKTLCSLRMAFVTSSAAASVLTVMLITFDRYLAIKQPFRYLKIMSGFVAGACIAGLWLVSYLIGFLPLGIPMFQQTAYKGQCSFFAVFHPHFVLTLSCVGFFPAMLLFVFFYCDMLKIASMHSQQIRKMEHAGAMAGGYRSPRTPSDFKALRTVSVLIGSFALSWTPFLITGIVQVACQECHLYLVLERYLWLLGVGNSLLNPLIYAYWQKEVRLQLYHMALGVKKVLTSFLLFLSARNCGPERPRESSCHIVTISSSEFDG
Procedure: COS-7 cells were cultured in Dulbecco's modified Eagle medium (DMEM) 1885 supplemented with 10% FBS, […] L-glutamine and 180 IU/ml penicillin+[…] streptomycin (Pen Strep) (Life Technologies, CA, USA) at 37° C. and 10% CO2. The COS-7 cells were transiently transfected with GPR119 or pcDNA by the calcium phosphate transfection method for 5 hours in 37° C., 10% CO2 as described by Kissow H, Hartmann B, Hoist J J, Viby N E, Hansen L S, Rosenkilde M M, Hare K J, Poulsen S S. Regul Pept. 2012. Vol: 179(1-3), pp 91-100; the disclosure of which is incorporated herein in its entirety by way of reference.
COS-7 cells were transfected with about 40 μg GPR119 DNA or pcDNA3 per […] flask. One day after transfection, the cells were seeded out (about 35,000 cell/well) in a 96 well white plate (Perkin Elmer, Massachusetts, USA). The cells were washed twice the following day and incubated for 30 min, at 37° C. with HBS and 1 mM IBMX (Sigma Aldrich, USA). Agonists were added for 30 min in the assay medium. The Hithunter® cAMP XS+ (DiscoveRx, Fremont, USA) was carried out by following the manufacturer's instructions.
Accordingly, the work outlined in this example evaluates whether activation of GPR119 by oleoyl-LPI in enteroendocrine L cell affect the proglucagon gene expression by monitoring the CREB activity. […]

## oleoyl-lysophosphatidylinositol [oleoyl-LPI]
[1]; GPR119−/− mice compared to wild type control
  GLP-1 release: unable to induce GLP-1 release
[1]; wild type mice, two hours treatment
  GLP-1 levels, from the basal secretion: 131±32%
Pancreatic islets; GPR119−/− islets
  insulin secretion response to stimulation: completely lost the ability to respond
Pancreatic islets; wild type islets, oleoyl-LPI 20 μM, 20 minutes
  enhancement of acute insulin secretion: approximately 50%
Human GPR119
  pEC50: 6.62
